Earlier results on two molecules are cited in patent US20060191043A1, “Low maintenance turfgrass” (priority 2004, published 2006).

Data set [1] deals with native EPSPS from E. coli (Escherichia coli, UniProt P0A6D3). Particulars: read-out: apparent Km for PEP.
The target in data set [2] is glyphosate-resistant EPSPS isolate having a single amino acid substitution of an alanine for the glycine at position 96 (Escherichia coli, UniProt P0A6D3, G96A). Conditions: alanine for glycine at position 96, read-out: apparent Ki for glyphosate.
Sequence of glyphosate-resistant EPSPS isolate having a single amino acid substitution of an alanine for the glycine at position 96 (P0A6D3 whole entry G96A): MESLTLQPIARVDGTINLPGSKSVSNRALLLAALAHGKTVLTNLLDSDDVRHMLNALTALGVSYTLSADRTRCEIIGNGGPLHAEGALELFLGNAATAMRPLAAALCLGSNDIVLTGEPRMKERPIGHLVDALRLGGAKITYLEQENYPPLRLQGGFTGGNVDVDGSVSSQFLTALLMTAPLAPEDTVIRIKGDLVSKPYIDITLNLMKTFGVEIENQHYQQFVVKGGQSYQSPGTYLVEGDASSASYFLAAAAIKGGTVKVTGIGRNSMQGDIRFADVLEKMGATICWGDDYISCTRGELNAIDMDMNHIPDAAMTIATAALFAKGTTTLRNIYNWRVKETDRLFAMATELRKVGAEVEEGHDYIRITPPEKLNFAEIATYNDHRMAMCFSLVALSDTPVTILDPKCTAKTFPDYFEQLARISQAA

Sequence of native EPSPS from E. coli (P0A6D3 whole entry): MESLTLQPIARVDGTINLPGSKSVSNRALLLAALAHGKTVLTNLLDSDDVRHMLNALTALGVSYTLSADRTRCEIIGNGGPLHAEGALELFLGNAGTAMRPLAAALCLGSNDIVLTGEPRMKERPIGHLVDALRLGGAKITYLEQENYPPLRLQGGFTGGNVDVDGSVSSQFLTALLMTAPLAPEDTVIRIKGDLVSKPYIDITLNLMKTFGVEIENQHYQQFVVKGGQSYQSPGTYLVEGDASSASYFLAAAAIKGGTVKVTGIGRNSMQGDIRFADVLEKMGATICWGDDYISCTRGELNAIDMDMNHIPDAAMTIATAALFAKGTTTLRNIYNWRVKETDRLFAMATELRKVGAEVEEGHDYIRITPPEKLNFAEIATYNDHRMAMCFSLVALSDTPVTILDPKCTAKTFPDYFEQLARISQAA

Consider `C=C(OP(=O)(O)O)C(=O)O` [PEP], for which, in data set [1], the Michaelis constant (Km) (as a rule, the concentration of substrate that gives half-maximal velocity) is 10 µM. Consider `O=C(O)CNCP(=O)(O)O` [glyphosate, N-phosphonomethylglycine], for which, in data set [2], the Ki was 4 mM.
